Measured values reported in the NIST ThermoML archive (doi:10.1016/j.jct.2009.03.009).

Columns and labels:
[1] = xn = mol fraction of the nth substance listed; details: 313.15 K, 101 kPa, Liquid; for speed of sound: Sing-around technique in a fixed-path interferometer; for mass density: Vibrating tube method
[2] = refractive index (Na D-line) (dimensionless); xn = mol fraction of the nth substance listed; details: 313.15 K, 101 kPa, Liquid, Standard Abbe refractometry

c1ccccc1 [benzene] + CCCCCC
Details | mass density, [1] [kg/m3] | refractive index, [2] | speed of sound, [1] [m/s]
x2 = 0 | 857.4 | 1.48752 | 1230
x2 = 0.0378 | 845.3 | 1.48075 | 1214.8
x2 = 0.1009 | 825.8 | 1.46941 | 1191.1
x2 = 0.1986 | 797.9 | 1.45313 | 1158.5
x2 = 0.2979 | 772.2 | 1.43818 | 1129.8
x2 = 0.402 | 747.7 | 1.42416 | 1104.3
x2 = 0.6024 | 706.3 | 1.40043 | 1063.9
x2 = 0.7014 | 688.2 | 1.39011 | 1047.7
x2 = 0.801 | 671.4 | 1.38019 | 1033.2
x2 = 0.9083 | 654.9 | 1.37148 | 1020.2
x2 = 0.9464 | 649.2 | 1.36837 | 1015.9

c1ccccc1 [benzene] + CCCCCCC
Details | mass density, [1] [kg/m3] | refractive index, [2] | speed of sound, [1] [m/s]
x2 = 0 | 857.4 | 1.48752 | 1230
x2 = 0.0511 | 840.8 | 1.47784 | 1210.9
x2 = 0.1025 | 825.2 | 1.46808 | 1193.3
x2 = 0.1998 | 798.6 | 1.45273 | 1165.5
x2 = 0.2987 | 775 | 1.43808 | 1142.8
x2 = 0.3972 | 754.3 | 1.42586 | 1124.4
x2 = 0.5013 | 734.9 | 1.4148 | 1108.9
x2 = 0.5998 | 718.5 | 1.40552 | 1096.8
x2 = 0.698 | 703.7 | 1.39777 | 1086.4
x2 = 0.8043 | 689.4 | 1.38985 | 1077.8
x2 = 0.9013 | 677.7 | 1.38322 | 1071.6
x2 = 0.9518 | 671.9 | 1.38025 | 1068.8

c1ccccc1 [benzene] + CCCCCCCC
x2 = 0
Details | mass density [kg/m3] | refractive index | speed of sound [m/s]
[1] | 857.4 | – | 1230
[2] | – | 1.48752 | –

c1ccccc1 [benzene] + CCCCCCCCC
x2 = 0
Details | mass density [kg/m3] | refractive index | speed of sound [m/s]
[1] | 857.4 | – | 1230
[2] | – | 1.48752 | –

CCc1ccccc1 [ethylbenzene] + CCCCCC
Details | mass density, [1] [kg/m3] | refractive index, [2] | speed of sound, [1] [m/s]
x2 = 0 | 849.2 | 1.48426 | 1256.9
x2 = 0.0465 | 839.4 | 1.47929 | 1243.8
x2 = 0.0771 | 832.8 | 1.47548 | 1235
x2 = 0.201 | 806.5 | 1.46016 | 1200.8
x2 = 0.3015 | 785.2 | 1.44756 | 1173.9
x2 = 0.399 | 764.7 | 1.43582 | 1148.5
x2 = 0.5092 | 741.7 | 1.42251 | 1121.1
x2 = 0.601 | 722.6 | 1.41135 | 1098.9
x2 = 0.7012 | 702 | 1.39924 | 1075.7
x2 = 0.7999 | 681.9 | 1.38766 | 1054.1
x2 = 0.8993 | 661.7 | 1.3759 | 1031.8
x2 = 0.9534 | 650.8 | 1.36962 | 1020.3

CCc1ccccc1 [ethylbenzene] + CCCCCCC
Details | mass density, [1] [kg/m3] | refractive index, [2] | speed of sound, [1] [m/s]
x2 = 0 | 849.2 | 1.48426 | 1256.9
x2 = 0.0494 | 838.5 | 1.47846 | 1243.9
x2 = 0.1039 | 826.9 | 1.47131 | 1229.8
x2 = 0.2025 | 806.7 | 1.4594 | 1205.9
x2 = 0.3022 | 786.8 | 1.44788 | 1183.7
x2 = 0.4038 | 767.2 | 1.43628 | 1162.6
x2 = 0.5006 | 749.3 | 1.42574 | 1144.6
x2 = 0.6003 | 731.6 | 1.41536 | 1126.9
x2 = 0.7014 | 714.3 | 1.40513 | 1109.8
x2 = 0.8048 | 697.3 | 1.39516 | 1094.8
x2 = 0.9028 | 681.7 | 1.38607 | 1079.9

CCc1ccccc1 [ethylbenzene] + CCCCCCCC
Details | mass density, [1] [kg/m3] | refractive index, [2] | speed of sound, [1] [m/s]
x2 = 0 | 849.2 | 1.48426 | 1256.9
x2 = 0.0536 | 837.6 | 1.47786 | 1244.1
x2 = 0.1028 | 827.4 | 1.47159 | 1232.9
x2 = 0.2037 | 807.4 | 1.45954 | 1212.1
x2 = 0.3032 | 788.7 | 1.4483 | 1193.8
x2 = 0.4015 | 771.4 | 1.43795 | 1177.7
x2 = 0.5013 | 755 | 1.42817 | 1163.3
x2 = 0.6039 | 739.2 | 1.41883 | 1150.1
x2 = 0.701 | 725.1 | 1.41043 | 1138.8
x2 = 0.7996 | 711.6 | 1.40254 | 1128.3
x2 = 0.9012 | 698.6 | 1.39489 | 1119.3
x2 = 0.9515 | 692.3 | 1.39112 | 1115

CCc1ccccc1 [ethylbenzene] + CCCCCCCCC
x2 = 0
Details | mass density [kg/m3] | refractive index | speed of sound [m/s]
[1] | 849.2 | – | 1256.9
[2] | – | 1.48426 | –

CCCCCCC [heptane] + CCc1ccccc1
x1 = 1
Details | mass density [kg/m3] | refractive index | speed of sound [m/s]
[1] | 666.6 | – | 1066.5
[2] | – | 1.37737 | –

CCCCCCC [heptane] + Cc1ccccc1
x1 = 1
Details | mass density [kg/m3] | refractive index | speed of sound [m/s]
[1] | 666.6 | – | 1066.5
[2] | – | 1.37737 | –

CCCCCCC [heptane] + c1ccccc1
x1 = 1
Details | mass density [kg/m3] | refractive index | speed of sound [m/s]
[1] | 666.6 | – | 1066.5
[2] | – | 1.37737 | –

CCCCCC [hexane] + CCc1ccccc1
x1 = 1
Details | mass density [kg/m3] | refractive index | speed of sound [m/s]
[1] | 641.4 | – | 1010.3
[2] | – | 1.36411 | –

CCCCCC [hexane] + Cc1ccccc1
Details | mass density, [1] [kg/m3] | refractive index, [2] | speed of sound, [1] [m/s]
x1 = 0.1032 | 822.9 | 1.47028 | 1208.5
x1 = 0.198 | 800.5 | 1.4571 | 1180.8
x1 = 0.2997 | 777.5 | 1.44367 | 1153.5
x1 = 0.4027 | 755.1 | 1.43045 | 1127.5
x1 = 0.5005 | 734.6 | 1.41844 | 1104.6
x1 = 0.5998 | 714.7 | 1.40685 | 1083.1
x1 = 0.6987 | 695.5 | 1.3956 | 1063.3
x1 = 0.7984 | 677 | 1.38476 | 1044.5
x1 = 0.9042 | 658.1 | 1.37387 | 1026.3
x1 = 1 | 641.4 | 1.36411 | 1010.3

CCCCCC [hexane] + c1ccccc1
x1 = 1
Details | mass density [kg/m3] | refractive index | speed of sound [m/s]
[1] | 641.4 | – | 1010.3
[2] | – | 1.36411 | –

CCCCCCCCC [nonane] + CCc1ccccc1
Details | mass density, [1] [kg/m3] | refractive index, [2] | speed of sound, [1] [m/s]
x1 = 0.0527 | 837.7 | 1.47759 | 1245.4
x1 = 0.1043 | 827.1 | 1.47111 | 1234.9
x1 = 0.2032 | 808.1 | 1.45968 | 1217.6
x1 = 0.3009 | 791 | 1.44884 | 1203.2
x1 = 0.4018 | 774.9 | 1.43899 | 1190.7
x1 = 0.5009 | 760.3 | 1.43055 | 1180.1
x1 = 0.6003 | 746.9 | 1.42241 | 1171.2
x1 = 0.7012 | 734.4 | 1.41482 | 1163.5
x1 = 0.8044 | 722.4 | 1.40792 | 1156.7
x1 = 0.9026 | 712 | 1.40178 | 1151.1
x1 = 0.9519 | 707 | 1.39883 | 1148.8
x1 = 1 | 702.2 | 1.39609 | 1146.4

CCCCCCCCC [nonane] + Cc1ccccc1
Details | mass density, [1] [kg/m3] | refractive index, [2] | speed of sound, [1] [m/s]
x1 = 0.1045 | 823.2 | 1.4692 | 1217.6
x1 = 0.2019 | 802.9 | 1.45691 | 1200.3
x1 = 0.3002 | 785 | 1.44571 | 1187
x1 = 0.4021 | 768.7 | 1.43571 | 1176
x1 = 0.502 | 754.5 | 1.42674 | 1167.7
x1 = 0.601 | 741.9 | 1.41934 | 1161.1
x1 = 0.696 | 731 | 1.41289 | 1156.2
x1 = 0.8032 | 719.9 | 1.40639 | 1151.8
x1 = 0.9022 | 710.6 | 1.40097 | 1148.9
x1 = 0.9501 | 706.4 | 1.3985 | 1147.7
x1 = 1 | 702.2 | 1.39609 | 1146.4

CCCCCCCCC [nonane] + c1ccccc1
Details | mass density, [1] [kg/m3] | refractive index, [2] | speed of sound, [1] [m/s]
x1 = 0.0535 | 839.7 | 1.47693 | 1212.1
x1 = 0.1025 | 825.4 | 1.46801 | 1199
x1 = 0.2013 | 800.8 | 1.45327 | 1179.5
x1 = 0.3006 | 780.6 | 1.44079 | 1166.1
x1 = 0.3997 | 763.8 | 1.43104 | 1157.2
x1 = 0.5 | 749.5 | 1.42229 | 1151.4
x1 = 0.5992 | 737.3 | 1.41549 | 1147.7
x1 = 0.7052 | 726.2 | 1.40945 | 1145.9
x1 = 0.8034 | 717.2 | 1.40436 | 1145.2
x1 = 0.9018 | 709.3 | 1.3999 | 1145.6
x1 = 0.9499 | 705.7 | 1.39796 | 1145.9
x1 = 1 | 702.2 | 1.39609 | 1146.4

CCCCCCCC [octane] + CCc1ccccc1
x1 = 1
Details | mass density [kg/m3] | refractive index | speed of sound [m/s]
[1] | 686.3 | – | 1110.6
[2] | – | 1.38769 | –
